Measurements from US20190151283A1, “NON-STEROIDAL SELECTIVE GLUCOCORTICOID RECEPTOR AGONISTIC MODULATORS (SEGRAMs) AND USES THEREOF” (ASSOCIATION POUR LA RECHERCHE À L'IGBMC (ARI), priority 2017, published 2019).

Key:
[1] = system: mice; assay: House dust mite (HDM)-induced asthma-like allergic lung inflammation; format: in vivo, mouse; conditions: for total number of BAL cells, eosinophils and lymphocytes: 0.5 mg/kg on D29-D31, BAL on D32, vs control group; for peribronchiolar and perivascular inflammatory cell infiltration: histology of lung paraffin sections; for expressions of IL-1β, IL-6, IL-4, IL-5, IL-13, Eotaxin and CCL4 (pro-inflammatory genes) in lung samples / HDM-induced airway hyperresponsiveness (AHR), airway resistance and elastance: D32; for HDM-induced airway hyperresponsiveness (AHR), airway resistance and elastance: response to methacholine 50 mg/mL
Protocol: Glucocorticoids have been (Pearlman et al., 1997. Ann Allergy Asthma Immunol. 78(4):356-62), and are still, widely used in asthma therapy. In order to investigate the possible CpdX anti-inflammatory activity in vivo, mice were sensitized and challenged with either ovalbumin (OVA) or house dust mite (HDM) to induce an asthma-like allergic lung inflammation.
Mice were intranasally sensitized with 1 μg HDM from DO to D4, and further intranasally sensitized with 10 μg HDM on D14 and D21. Mice were then subdivided into eight groups, and on D29, D30 and D31, each mouse was again intranasally challenged with 1 μg HDM. The first seven groups received respectively 0.5 mg/kg of body weight of Dex, CpdX, CpdX(eA), CpdX(eB), CpdX-D3, CpdX-D3(eA) or CpdX-D3(eB), while the eighth group served as a control.
On D32, the airway responsiveness was invasively determined using a computer-controlled small animal ventilator (FlexVent® system, SCIREQ Technologies). Mice were anesthetized with xylazine (15 mg/kg, i.p.), followed 15 minutes later by an i.p. injection of pentobarbital sodium (54 mg/kg). An 18-gauge metal needle was then inserted into the trachea, each mouse was connected to the FlexVent® ventilator and quasi-sinusoidally ventilated with a tidal volume of 10 mL/kg at a frequency of 150 breaths/minute and a positive end-expiratory pressure of 2 cm H2O, in order to achieve a mean lung volume close to spontaneous breathing. After baseline measurement, mice were challenged for 10 seconds with a saline aerosol and, at 4.5-minute intervals, with 50 mg/mL methacholine. Airway resistance and elastance were expressed as cmH20·s/mL and cmH2O/mL respectively.
The lung allergic inflammation was assessed by examination of the bronchoalveolar lavage (BAL) fluid from each of these HDM-challenged mice. The total BAL cells, eosinophils, neutrophils, macrophages and lymphocytes were counted. RNA transcripts were extracted from lung samples. RNA transcripts of IL-1β, IL-6, IL-4, IL-5, IL-13, Eotaxin, CCL4, IL-10 and TNFα were analyzed by q-RT-PCR. Lung tissues were harvested and histological (with H&E staining) and immunohistochemical analyses were also carried out (with eosinophil-specific and neutrophil-specific antibodies).

[2] = system: B6 male mice; assay: Organ weights (thymus, spleen, adrenal gland, kidney) after three-month treatment; format: in vivo, mouse; conditions: s.c. 1 mg/kg daily, three months
Protocol: B6 male mice (8-week-old) were daily subjected for three months to a subcutaneous injection of either vehicle (NaCl 0.9%), Dex, CpdX, CpdX(eA), CpdX(eB), CpdX-D3, CpdX-D3(eA) or CpdX-D3(eB) (1 mg/kg body weight, diluted in vehicle). Following these treatments, four organs (thymus, spleen, adrenal gland and kidney) were harvested and weighted.

[3] = system: Balb/C mouse ears; assay: TPA-induced irritant contact dermatitis-like inflammation; format: in vivo
Protocol: Balb/C mouse ears were topically treated with TPA to induce an “irritant contact dermatitis-like inflammation”.
Mice were treated for 4 days with TPA, then for 5 extra days (until D9) with either vehicle, TPA alone, TPA and Dex, TPA and CpdX or TPA and CpdX-D3.
At D10, RNA transcripts were extracted from mouse ear skin samples and the transcripts of CCL4, COX2, MMP13, IL-1β, IL-6, TNF-α, TSLP, IL-22 and IL-23 were analyzed by q-RT-PCR. Ear skin was harvested, and histological (with H&E staining) and immunohistochemical (with anti-TSLP antibodies) analyses were carried out.

[4] = system: B6 male mice; assay: Blood glucose and intraperitoneal glucose tolerance test after three-month treatment; format: in vivo, mouse; conditions: for control of the blood glucose level: three months, conclusion; for blood glucose level in intraperitoneal glucose tolerance test (IPGTT): two-hour period after glucose i.p. injection (2 mg/kg body weight)
Protocol: B6 male mice (8-week-old) were daily subjected for three months to a subcutaneous injection of either vehicle (NaCl 0.9%), Dex, CpdX, CpdX(eA), CpdX(eB), CpdX-D3, CpdX-D3(eA) or CpdX-D3(eB) (1 mg/kg body weight, diluted in vehicle). Mice were over-night-fasted. Mouse blood glucose concentration was measured before (T0) and during two hours (T120) after glucose i.p. injection ([…] body weight).

[5] = system: B6 male mice; assay: Fatty liver after three-month treatment; format: in vivo, mouse; conditions: three months; for transcripts of fatty acid synthase (FASN) and Stearoyl-CoA desaturase 1 (SCD1) in liver: q-RT-PCR, 'but not' = no increase; for blood cholesterol and bile acids' levels: 'but not' = no clear increase
Protocol: B6 male mice (8-week-old) were daily subjected for three months to a subcutaneous injection of either vehicle (NaCl 0.9%), Dex, CpdX, CpdX(eA), CpdX(eB), CpdX-D3, CpdX-D3(eA) or CpdX-D3(eB) (1 mg/kg body weight, diluted in vehicle). Following this treatment, blood was collected at 10 a.m. by retro-orbital puncture in lithium-heparin coated vials. The plasmatic levels of total cholesterol and bile acids were determined.
Liver samples were harvested. […] RNA transcripts were extracted from liver samples and the transcripts of fatty acid synthase (FASN) and Stearoyl-CoA desaturase 1 (SCD1) genes were analyzed by q-RT-PCR.

[6] = system: Male mice (DBA-1 strain); assay: Collagen-induced arthritis (CIA); format: in vivo, mouse; conditions: for hind paw thickness at the ankle level: i.p. 1 mg/kg daily for 10 days (T0 to T10); for RNA transcripts of the pro-inflammatory genes expressed in the hind paws (IL-1β, IL-6, IL-17a, IL-17f, TNFα): q-RT-PCR, T10, 'but not' = not repressed
Protocol: Mice were treated with collagen to induce a Th17 rheumatoid arthritis-like inflammation as described by Inglis et al. (2007. Arthritis Res Ther. 9(5):R113) and Geboes et al. (2009. Arthritis Rheum. 60(2):390-5).
Male mice (DBA-1 strain) were subcutaneously-injected with 100 μg collagen per mouse on D0. The hind paw thickness at the ankle level was regularly measured with a caliper. When the ankle thickness had reached around 4 mm (T0, i.e., 30 to 50 days after the collagen injection on D0), mice were daily intraperitoneally-injected for 10 days (T0 to T10) with either vehicle (NaCl 0.9%), Dex, CpdX, CpdX(eA), CpdX(eB), CpdX-D3, CpdX-D3(eA) or CpdX-D3(eB) (1 mg/kg body weight diluted in NaCl 0.9%), and the hind paw thickness at the ankle level was daily measured with a caliper. Pictures of the hind paws were taken at days T0 and T10 (before and after the treatment with either Vehicle, Dex, CpdX, CpdX(eA), CpdX(eB), CpdX-D3, CpdX-D3(eA) or CpdX-D3(eB)), in order to assess the course of swelling.
RNA transcripts were extracted from whole hind paws of collagen-untreated and collagen-treated mice at T0 and T10. IL-1β, IL-6, IL-17a, IL-17f and TNFα transcripts were analyzed by q-RT-PCR.

spleen weight [2] | weight of the adrenal gland [2] | transcripts of fatty acid synthase (FASN) and Stearoyl-CoA desaturase 1 (SCD1) in liver [5] | blood cholesterol and bile acids' levels [5] | SMILES | total number of BAL cells, eosinophils and lymphocytes [1] | peribronchiolar and perivascular inflammatory cell infiltration [1] | expressions of IL-1β, IL-6, IL-4, IL-5, IL-13, Eotaxin and CCL4 (pro-inflammatory genes) in lung samples ([1]; q-RT-PCR) | HDM-induced airway hyperresponsiveness (AHR), airway resistance and elastance [1] | thymus apoptosis / thymus found [2] | control of the blood glucose level [4] | blood glucose level in intraperitoneal glucose tolerance test (IPGTT) [4] | RNA transcripts of the pro-inflammatory genes expressed in the hind paws (IL-1β, IL-6, IL-17a, IL-17f, TNFα) [6] | hind paw thickness at the ankle level ([6]; 1 mg/kg) | other results
not decreased | increased | but not | but not | [2H]C([2H])([2H])Oc1ccc(F)cc1C(C)(C)CC(O)(CNc1ccc2c(c1)COC2=O)C(F)(F)F (centres unmarked) [CpdX-D3(eA), 5-{4-[2-(methoxy-D3)-5-fluorophenyl]-2-hydroxy-4-methyl-2-(trifluoromethyl)pentylamino}isobenzofuran-1(3H)-one] | efficiently decreased | decreased | efficiently decreased | – | did not result in any significant thymus apoptosis | does not significantly affect | no significant difference | similarly repressed | – | –
not decreased | increased | but not | but not | [2H]C([2H])([2H])Oc1ccc(F)cc1C(C)(C)CC(O)(CNc1ccc2c(c1)COC2=O)C(F)(F)F (centres unmarked) [CpdX-D3(eB), 5-{4-[2-(methoxy-D3)-5-fluorophenyl]-2-hydroxy-4-methyl-2-(trifluoromethyl)pentylamino}isobenzofuran-1(3H)-one] | – | – | – | – | did not result in any significant thymus apoptosis | does not significantly affect | no significant difference | – | no such decrease | –

More lines, now with the values behind:

SMILES | spleen weight [2] | weight of the adrenal gland [2] | transcripts of fatty acid synthase (FASN) and Stearoyl-CoA desaturase 1 (SCD1) in liver [5] | blood cholesterol and bile acids' levels [5] | total number of BAL cells, eosinophils and lymphocytes [1] | peribronchiolar and perivascular inflammatory cell infiltration [1] | expressions of IL-1β, IL-6, IL-4, IL-5, IL-13, Eotaxin and CCL4 (pro-inflammatory genes) in lung samples ([1]; q-RT-PCR) | HDM-induced airway hyperresponsiveness (AHR), airway resistance and elastance [1] | thymus apoptosis / thymus found [2] | control of the blood glucose level [4] | blood glucose level in intraperitoneal glucose tolerance test (IPGTT) [4] | RNA transcripts of the pro-inflammatory genes expressed in the hind paws (IL-1β, IL-6, IL-17a, IL-17f, TNFα) [6] | hind paw thickness at the ankle level ([6]; 1 mg/kg) | other results
COc1ccc(F)cc1C(C)(C)CC(O)(CNc1ccc2c(c1)COC2=O)C(F)(F)F (racemic) [CpdX, 5-[4-(5-fluoro-2-methoxyphenyl)-2-hydroxy-4-methyl-2-(trifluoromethyl)pentylamino]-isobenzofuran-1(3H)-one] | not decreased | increased | but not | but not | significantly decreased | strongly decreased | significantly and similarly decreased | similarly reduced | did not result in any significant thymus apoptosis | does not significantly affect | no significant difference | similarly repressed | – | number of neutrophils and macrophages in BAL ([1]; 0.5 mg/kg on D29-D31, BAL on D32): No significant change; eosinophils in lung, immunohistochemistry ([1]; eosinophil-specific antibodies, data not shown): decreased; neutrophils in lung, immunohistochemistry ([1]; neutrophil-specific antibody, data not shown): no significant change; expressions of IL-10 and TNFα in lung samples ([1]; q-RT-PCR, data not shown): not affected; TPA-induced ear skin inflammation, histological analysis ([3]; compared to the control, data not shown): significantly decreased; TPA-induced transcription of pro-inflammatory genes ([3]; ear extracts, q-RT-PCR, D10): repressed, as efficiently as Dex; expression of TSLP in TPA-treated mouse epidermis ([3]; immunochemistry with TSLP-specific antibody, data not shown): similarly strongly decreased; TPA-induced skin inflammation ([3]; topical, 5 days co-treatment with TPA): significantly decreased; lipid deposition in the liver ([5]; 5% Red oil staining of frozen sections): not observed; hind paw thickness at the ankle level [6]: rapid decrease; hind paw thickness, difference compared to the Dex treatment ([6]; student t test, FIG. 17 legend): not significant
COc1ccc(F)cc1C(C)(C)CC(O)(CNc1ccc2c(c1)COC2=O)C(F)(F)F (single isomer, unassigned) [CpdX(eA), 5-[4-(5-fluoro-2-methoxyphenyl)-2-hydroxy-4-methyl-2-(trifluoromethyl)pentylamino]-isobenzofuran-1(3H)-one] | not decreased | increased | but not | but not | efficiently decreased | decreased | efficiently decreased | reduced | did not result in any significant thymus apoptosis | does not significantly affect | no significant difference | similarly repressed | – | –
COc1ccc(F)cc1C(C)(C)CC(O)(CNc1ccc2c(c1)COC2=O)C(F)(F)F (single isomer, unassigned) [CpdX(eB), 5-[4-(5-fluoro-2-methoxyphenyl)-2-hydroxy-4-methyl-2-(trifluoromethyl)pentylamino]-isobenzofuran-1(3H)-one] | not decreased | increased | but not | but not | – | – | – | – | did not result in any significant thymus apoptosis | does not significantly affect | no significant difference | – | no such decrease | –
